Legend:
ZIKV = ZIKV viral production in A549 cells by standard plaque assay; assay type: cell-based, Zika virus; conditions: for ZIKV viral production, concentration dependence: A549, MOI 5, 1 to 100 µM; for Selective Index (SI): ZIKV, CC50 and EC50 in A549 cells; for EC50: Zika virus, A549 cells, MOI 5, 24 h treatment post-infection, plaque assay, read-out: EC50 against ZIKV infection
Method: To confirm the effects of andrographolide and the andrographolide analogues on ZIKV infection, A549 cells were infected with ZIKV at MOI of 5 for 2 h, and subsequently treated with the compounds at concentrations of 10 and 25 μM or with vehicle for 24 h. The cells were harvested for determination of the percentage of infection by flow cytometry, while the supernatants were collected for determination of viral titer by standard plaque assay.
Thus, the EC50 values of ZAD-1 and andrographolide were determined against ZIKV and DENV 2. For ZIKV, A549 cells were infected with ZIKV at MOI 5 and after 2 h of infection, the cells were incubated with ZAD-1 or andrographolide at a range of concentrations (1 to 100 µM) for 24 h, after which the supernatants were collected for determination of EC50 values by standard plaque assay. Both ZAD-1 and andrographolide reduced viral production in a dose-dependent manner (Figure 4A). […] For DENV 2, HEK293T/17 cells were infected with DENV 2 at MOI 5 for 2 h and followed by incubation with ZAD-1 or andrographolide at a range of concentrations (1 to 100 µM) for 24 h. […] The EC50 value for andrographolide in DENV infection is consistent with our previous study undertaken in HepG2 and HeLa cells with the same virus.
DENV 2 (strain 16681) and ZIKV (strain SV0010/15) virus stocks were propagated in C6/36 cells previously described, and virus titers were determined by standard plaque assay as described previously using Vero cells for ZIKV and LLC-MK2 cells for DENV.
HEK293T/17 or A549 cells were cultured in six-well plates under standard conditions until the cells reached 80% confluence. HEK293T/17 cells were infected with DENV 2, while A549 cells were infected with ZIKV Thai strain at MOI 5 for 2 h at 37 °C and 5% CO2 in culture medium without FBS. Mock infection was undertaken in parallel. After the infection period, the medium was removed and replaced with complete medium (including FBS) containing 0.1% DMSO (no treatment control) or the appropriate concentration of each compound and cells were again incubated under standard conditions. At 24 h post-treatment, cells were harvested for determination of effects of compounds on percentage of infection and supernatant was collected for determination of viral productivity. All experiments were undertaken independently in triplicate with duplicate plaque assay.

[1] = MTT cytotoxicity assay in A549 cells; assay type: cell-based; conditions: human, A549 cells (human lung carcinoma), 24 h post-treatment
Method: (§1) Cytotoxicity of each compound towards cells for four selected cell lines in the range of 1 to 500 µM was evaluated using the MTT (3-(4,5-dimethylthiazol-2-yl)-2,5-diphenyltetrazolium bromide) assay at 24 h post-treatment, in parallel with control and vehicle-treated cells (0.1% dimethyl sulfoxide (DMSO)). The 50% cytotoxic concentration (CC50) values calculated from the dose-response curve (Supplementary Figures S2–S5) are shown in Table 1. Overall, a range of cytotoxicities were seen from the four compounds across the […]. The most cytotoxic combination was ZAD-1 and BHK-21 cells, while the least cytotoxic combination was andrographolide and BHK-21 cells (Table 1).
(§2) A549 cells were cultured in ninety-six-well tissue culture plates under standard conditions until the cells reached 90% confluence. The cell culture medium was removed and then cells were incubated with various concentrations of andrographolide (1–100 μM) diluted in complete medium with FBS prior to being cultured for 24 h under standard conditions before analysis using either the Vybrant MTT Cell proliferation assay kit (V13154, Invitrogen) or the alamarBlue (Thermo Fischer Scientific, Waltham, MA, USA) assay kit according to the manufacturers recommendations. Values were determined from 8 (MTT assay) or 3 (alamarBlue) independent replicates. Negative controls (only media and media with 0.1% DMSO) and positive controls (5% DMSO) were included. To determine cell number, cell cultures were trypsinized by the addition of 0.25% Trypsin/0.1% ethylelediaminetetraacetic acid (EDTA) for 3 min and then cell suspensions were diluted with 0.4% trypan blue solution. Cells were counted using a hemocytometer. Cell morphology was additionally observed under an inverted microscope after 24 h treatment with various concentrations of each compound.
Figu re S4. Cytotoxicity of ZAD -1 (A), ZA D-2 (B), ZA D-3 (C), and andro grapholide (D) to A549 (human lung carcinoma) cells. A549 cells were incubated with various concentrations of each compound for 24 hrs followed by MTT cell viability assay. The experiment was undertaken independently in 4 replicates.
(§3) DMSO at the same concentrations was used as a control. 10% ethanol, PBS, and milli- Q water were used as a positive control of cell death. The bars show mean ± SD. […]

Ran = assay: 2D-PAGE proteomic analysis of treated A549 cells, Ran spot; assay type: cell-based, human; conditions: A549, 25 µM, 24 h
Method: (§4) A549 cells were therefore treated with either vehicle (0.025% DMSO), or with 25 μM of andrographolide or ZAD-1, and at 24 h post-treatment, proteins were prepared and subjected to two-dimension polyacrylamide gel electrophoresis (2D-PAGE). The experiment was undertaken independently in triplicate and representative gels are shown Figure 5, with all replicates being shown in Supplementary Figure S12. […] All of these protein spots were cut from the gels and then subjected to in-gel tryptic digestion followed by mass spectrometry. MASCOT (Matrix Science Inc., Boston, MA, USA) search of the resultant masses identified 4 proteins (Table 3), namely heat shock protein 70 kDa 1A (HSPA1A), phosphoglycerate kinase 1 (PGK1), transketolase (TKT) and nuclear transport protein of GTP-binding nuclear protein Ran (Ran).
(§5) 2D-PAGE and mass spectroscopic identification of differentially expressed spots was undertaken essentially as previously described. […] Image data were analyzed using Image Master™ 2D Platinum software version 7.0 (GenBio, Geneva, Switzerland). Each spot was evaluated on intensity, volume and area. […] After tryptic in-gel digestion, peptide masses were determined by LC-MS/MS using SYNAPT high definition MS (HDMS) (Waters Corp., Milford, MA, USA).

[2] = MTT cytotoxicity assay in BHK-21 cells; assay type: cell-based; conditions: hamster, BHK-21 cells (baby hamster kidney), 24 h post-treatment
Method: as §1, §2
Figu re S2. Cytotoxicity of ZAD -1 (A), ZA D-2 (B), ZA D-3 (C), and andro grapholide (D) to BHK- 21 (baby hamster kidney) cells. BHK- 21 cells were incubated with various concentrations of each compound for 24 hrs followed by MTT cell viability assay. The experiment was undertaken independently in 4 replicates.
as §3

PGK1 = assay: 2D-PAGE proteomic analysis of treated A549 cells, PGK1 spot; assay type: cell-based, human; conditions: A549, 25 µM, 24 h
Method: as §4, §5

| SMILES | ZIKV viral production, concentration dependence (ZIKV; 24 h) | Selective Index (SI) (ZIKV) | EC50 (ZIKV) | CC50 at 24 h [1] | Intensity Level, spot 4 Ran (Ran) | CC50 at 24 h [2] | Intensity Level, spot 3 PGK1 (PGK1) | inhibitory effect on ZIKV infection, comparison among compounds (ZIKV; A549, MOI 5, 25 µM, 24 h) |
| --- | --- | --- | --- | --- | --- | --- | --- | --- |
| C=C1CC[C@@H]2[C@](C)(CO)[C@H](O)CC[C@@]2(C)[C@@H]1C/C=C1/C(=O)OC[C@H]1O [Andrographolide] | dose-dependent | 6.6 | 31.8 ± 3.5 µM | 211 ± 32 µM | 698.483 | 600 ± 75 µM | 1053.31 | – |
| C=C1CC[C@@H]2[C@]3(C)COC(C)(C)O[C@@H]3CC[C@@]2(C)[C@@H]1C/C=C1/C(=O)OC[C@@H]1Oc1c(Cl)cc(Cl)c2ccc(C)nc12 [ZAD-1] | dose-dependent | 9.8 | 27.9 ± 1.7 µM | 273 ± 22 µM | 2096.79 | 136 ± 6 µM | 2509.31 | greatest inhibitory effect |
